Experiments:
MCF7 = assay: Cytotoxicity against human MCF7 cells assessed as cell viability after 48 hrs by MTT assay; type: functional, cell-based; conditions: MCF7, 48 h
HT-29 = assay: Cytotoxicity against human HT-29 cells assessed as cell viability after 48 hrs by MTT assay; type: functional, cell-based; conditions: HT-29, 48 h

SMILES	IC50 (MCF7) [µM]	IC50 (HT-29) [µM]
C=CCCC[C@@H]1OC(=O)CNC(=O)[C@H](Cc2ccccc2)N(C)C(=O)[C@@H]2CCCN2C(=O)[C@H](Cc2ccccc2)N(C)C(=O)[C@H](C(C)C)NC(=O)C1(C)C [COCOSAMIDE A]	30	24
C#CCCC[C@@H]1OC(=O)CNC(=O)[C@H](Cc2ccccc2)N(C)C(=O)[C@@H]2CCCN2C(=O)[C@H](Cc2ccccc2)N(C)C(=O)[C@H](C(C)C)NC(=O)C1(C)C [COCOSAMIDE B]	39	11
CCCCCCC[C@@H](C/C=C/CCC(=O)N(C)C/C(=C\Cl)CC(=O)CC(=O)NC[C@H](O)CC(=O)OC)OC [MALYNGAMIDE 3]	29	48
CC(=O)O[C@H]1C(=O)[C@@]2(C)[C@H]([C@H](OC(=O)c3ccccc3)[C@]3(O)C[C@H](OC(=O)[C@H](O)[C@@H](NC(=O)c4ccccc4)c4ccccc4)C(C)=C1C3(C)C)[C@]1(OC(C)=O)CO[C@@H]1C[C@@H]2O [PACLITAXEL]	0.006	0.007

— ChEMBL document CHEMBL1773013, “Malyngamide 3 and cocosamides A and B from the marine cyanobacterium Lyngbya majuscula from Cocos Lagoon, Guam” (J Nat Prod, 2011)
